# Tests used:
# Assay in all cases: Growth inhibitory activity of compounds on BaF3 cell lines stably transfected with kinase (MTS, 48 h)
# Type in all cases: cell-based
# [1] = target: T1, various mutants of kinase EGFR (BaF3 cell lines stably transfected with kinase) (Homo sapiens, UniProt P00533, L858R); details: BaF3 cells stably transfected with EGFR L858R, read-out: IC50, growth inhibition, L858R
# T1 construct: expressed in transfected cells; host or cells: BaF3
# Experimental: (§1) The activity of compounds against various mutants of kinase EGFR was evaluated by their effect of inhibiting growth of BaF3 cell lines stably transfected with kinase. The specific test method was given as follows:
# (§2) 1) Culture medium: DMEM (Dulbecco’s modified eagle medium) or RPMI 1640 (containing 10% fetal bovine serum, 100 µg/mL ampicillin, 100 µg/mL streptomycin).
# (§3) 2) Reagent: MTS reaction solution (containing 2 mg/mL of MTS [3-(4,5-dimethylthiazol-2-yl)-5-(3-carboxymethoxyphenyl)-2-(4-sulfophenyl)-2H-tetrazoliu m, inner Salt]; 100 µg/mL of PES ([…])).
# (§4) 3) Compound test: cells were incubated into a 96-well culture plate, the volume of cytosol was 90 µL, and then 10 µL of the compound at each gradient concentration was added. That is, the highest concentration was 10 µM, which was diluted stepwise by ⅓, and 8 concentration points were set in total; 0.1% DMSO (dimethyl sulfoxide) was contained in the system. The cell plate with uniformly mixed compound was cultured in a cell culture incubator (37° C.; 5% CO2) for 48 h, then 20 µL of MTS reaction solution was added, uniformly mixed and incubated in the cell culture incubator (37° C.; 5% CO2) for 1-4 h. OD values at 490 nm were measured by a microplate reader (VARIOSKAN FLASH, Thermo). Two parallels were set in each group of experiments, with 0.1% (a final concentration) DMSO as a negative control, and a culture medium without cells and compounds as a blank control. The cell growth inhibition rate was calculated by the following formula: […]
# (§5) 4) IC50 calculation: The semi-inhibitory concentration of the compounds acting on cells was calculated using GradPad Prism 5 software according to the measured cell growth inhibition rate.
# [2] = target: T2, various mutants of kinase EGFR (BaF3 cell lines stably transfected with kinase) (Homo sapiens, UniProt P00533, T790M, form not given); details: BaF3 cells stably transfected with EGFR Δ19Del/T790M, read-out: IC50, growth inhibition, Δ19Del/T790M
# T2 construct: other: BaF3 cells stably transfected with EGFR Δ19Del/T790M; MTS, 48 h; other: BaF3 cell line stably transfected with EGFR Δ19Del/T790M; MTS, 48
# T2 sequence (P00533 with tags, fused parts or gaps DEL746-750/T790M, form open): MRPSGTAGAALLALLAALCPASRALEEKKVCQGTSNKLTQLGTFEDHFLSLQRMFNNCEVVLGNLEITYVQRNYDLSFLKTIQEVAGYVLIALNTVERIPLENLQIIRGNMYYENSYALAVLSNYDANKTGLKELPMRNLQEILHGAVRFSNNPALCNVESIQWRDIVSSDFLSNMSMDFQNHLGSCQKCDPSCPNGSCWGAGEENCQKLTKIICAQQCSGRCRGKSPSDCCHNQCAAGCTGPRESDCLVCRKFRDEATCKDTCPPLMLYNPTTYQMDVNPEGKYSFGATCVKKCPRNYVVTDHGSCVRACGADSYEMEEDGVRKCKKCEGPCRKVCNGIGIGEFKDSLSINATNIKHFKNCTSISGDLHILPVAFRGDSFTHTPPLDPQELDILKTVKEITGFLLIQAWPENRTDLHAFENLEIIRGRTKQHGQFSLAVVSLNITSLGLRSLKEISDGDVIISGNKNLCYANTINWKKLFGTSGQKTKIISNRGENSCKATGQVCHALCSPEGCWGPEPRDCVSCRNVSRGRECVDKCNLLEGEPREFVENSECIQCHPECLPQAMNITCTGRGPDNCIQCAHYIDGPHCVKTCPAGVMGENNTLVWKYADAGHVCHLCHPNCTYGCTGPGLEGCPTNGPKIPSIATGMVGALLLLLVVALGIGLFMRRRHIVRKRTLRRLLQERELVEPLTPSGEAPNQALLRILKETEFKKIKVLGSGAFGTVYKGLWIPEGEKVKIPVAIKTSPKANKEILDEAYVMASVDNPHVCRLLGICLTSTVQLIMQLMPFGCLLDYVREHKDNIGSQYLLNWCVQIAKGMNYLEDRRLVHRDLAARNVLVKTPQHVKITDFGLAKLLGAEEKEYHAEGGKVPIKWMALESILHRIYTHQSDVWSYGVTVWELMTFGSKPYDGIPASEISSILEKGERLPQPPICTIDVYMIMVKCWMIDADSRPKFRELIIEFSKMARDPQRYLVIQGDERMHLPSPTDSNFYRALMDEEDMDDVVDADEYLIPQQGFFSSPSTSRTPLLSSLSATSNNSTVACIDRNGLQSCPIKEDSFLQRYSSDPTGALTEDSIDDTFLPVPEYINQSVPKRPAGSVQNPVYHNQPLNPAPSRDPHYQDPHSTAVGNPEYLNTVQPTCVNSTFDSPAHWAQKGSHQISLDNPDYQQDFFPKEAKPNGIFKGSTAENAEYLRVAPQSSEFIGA
# Experimental: as §1, §2, §3, §4, §5
# [3] = target: T3, various mutants of kinase EGFR (BaF3 cell lines stably transfected with kinase) (Homo sapiens, UniProt P00533, C797S/L858R/T790M); details: BaF3 cells stably transfected with EGFR L858R/T790M/C797S, read-out: IC50, growth inhibition, L858R/T790M/C797S
# T3 construct: expressed in transfected cells; host or cells: BaF3
# T3 sequence (P00533 25-1210 T790M/C797S/L858R): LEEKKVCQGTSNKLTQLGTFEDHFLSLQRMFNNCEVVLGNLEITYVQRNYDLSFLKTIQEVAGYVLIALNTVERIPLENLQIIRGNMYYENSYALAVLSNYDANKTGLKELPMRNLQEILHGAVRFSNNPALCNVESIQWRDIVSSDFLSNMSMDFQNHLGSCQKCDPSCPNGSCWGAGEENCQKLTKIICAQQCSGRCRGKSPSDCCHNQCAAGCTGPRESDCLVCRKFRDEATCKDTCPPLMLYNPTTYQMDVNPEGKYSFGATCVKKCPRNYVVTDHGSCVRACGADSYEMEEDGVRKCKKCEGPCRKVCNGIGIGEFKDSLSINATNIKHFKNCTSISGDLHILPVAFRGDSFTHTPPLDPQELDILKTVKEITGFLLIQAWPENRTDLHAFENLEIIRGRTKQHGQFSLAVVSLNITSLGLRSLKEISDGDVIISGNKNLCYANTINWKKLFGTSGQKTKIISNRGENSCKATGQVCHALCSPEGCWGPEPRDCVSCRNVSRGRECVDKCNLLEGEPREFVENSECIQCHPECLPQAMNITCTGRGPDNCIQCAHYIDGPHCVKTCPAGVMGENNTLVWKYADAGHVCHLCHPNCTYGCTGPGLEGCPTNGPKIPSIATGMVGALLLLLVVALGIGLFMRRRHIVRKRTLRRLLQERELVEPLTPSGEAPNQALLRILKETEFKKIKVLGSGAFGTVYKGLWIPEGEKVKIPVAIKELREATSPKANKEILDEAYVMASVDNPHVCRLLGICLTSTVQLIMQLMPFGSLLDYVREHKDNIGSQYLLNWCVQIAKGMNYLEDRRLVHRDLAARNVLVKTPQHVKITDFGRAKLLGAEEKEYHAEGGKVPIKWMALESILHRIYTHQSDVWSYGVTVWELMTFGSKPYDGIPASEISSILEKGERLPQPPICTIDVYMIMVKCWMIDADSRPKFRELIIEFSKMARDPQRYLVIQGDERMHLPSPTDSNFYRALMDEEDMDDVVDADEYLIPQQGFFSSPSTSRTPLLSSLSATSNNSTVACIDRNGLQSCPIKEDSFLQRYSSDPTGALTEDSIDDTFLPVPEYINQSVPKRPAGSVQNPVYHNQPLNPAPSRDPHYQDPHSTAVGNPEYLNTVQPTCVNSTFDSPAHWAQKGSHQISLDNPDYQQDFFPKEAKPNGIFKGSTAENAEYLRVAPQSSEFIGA
# Experimental: as §1, §2, §3, §4, §5
# [4] = target: T4, various mutants of kinase EGFR (BaF3 cell lines stably transfected with kinase) (Homo sapiens, UniProt P00533, T790M/C797S, form not given); details: BaF3 cells stably transfected with EGFR Δ19Del/T790M/C797S, read-out: IC50, growth inhibition, Δ19Del/T790M/C797S
# T4 construct: other: BaF3 cells stably transfected with EGFR Δ19Del/T790M/C797S; MTS, 48; other: BaF3 cell line stably transfected with EGFR Δ19Del/T790M/C7
# Experimental: as §1, §2, §3, §4, §5
# [5] = target: T5, various mutants of kinase EGFR (BaF3 cell lines stably transfected with kinase) (Homo sapiens, UniProt P00533); details: BaF3 cells stably transfected with EGFR Δ19Del, read-out: IC50, growth inhibition, Δ19Del
# T5 construct: other: BaF3 cells stably transfected with EGFR Δ19Del; MTS, 48 h; other: BaF3 cell line stably transfected with EGFR Δ19Del
# T5 sequence (P00533 with tags, fused parts or gaps DEL746-750): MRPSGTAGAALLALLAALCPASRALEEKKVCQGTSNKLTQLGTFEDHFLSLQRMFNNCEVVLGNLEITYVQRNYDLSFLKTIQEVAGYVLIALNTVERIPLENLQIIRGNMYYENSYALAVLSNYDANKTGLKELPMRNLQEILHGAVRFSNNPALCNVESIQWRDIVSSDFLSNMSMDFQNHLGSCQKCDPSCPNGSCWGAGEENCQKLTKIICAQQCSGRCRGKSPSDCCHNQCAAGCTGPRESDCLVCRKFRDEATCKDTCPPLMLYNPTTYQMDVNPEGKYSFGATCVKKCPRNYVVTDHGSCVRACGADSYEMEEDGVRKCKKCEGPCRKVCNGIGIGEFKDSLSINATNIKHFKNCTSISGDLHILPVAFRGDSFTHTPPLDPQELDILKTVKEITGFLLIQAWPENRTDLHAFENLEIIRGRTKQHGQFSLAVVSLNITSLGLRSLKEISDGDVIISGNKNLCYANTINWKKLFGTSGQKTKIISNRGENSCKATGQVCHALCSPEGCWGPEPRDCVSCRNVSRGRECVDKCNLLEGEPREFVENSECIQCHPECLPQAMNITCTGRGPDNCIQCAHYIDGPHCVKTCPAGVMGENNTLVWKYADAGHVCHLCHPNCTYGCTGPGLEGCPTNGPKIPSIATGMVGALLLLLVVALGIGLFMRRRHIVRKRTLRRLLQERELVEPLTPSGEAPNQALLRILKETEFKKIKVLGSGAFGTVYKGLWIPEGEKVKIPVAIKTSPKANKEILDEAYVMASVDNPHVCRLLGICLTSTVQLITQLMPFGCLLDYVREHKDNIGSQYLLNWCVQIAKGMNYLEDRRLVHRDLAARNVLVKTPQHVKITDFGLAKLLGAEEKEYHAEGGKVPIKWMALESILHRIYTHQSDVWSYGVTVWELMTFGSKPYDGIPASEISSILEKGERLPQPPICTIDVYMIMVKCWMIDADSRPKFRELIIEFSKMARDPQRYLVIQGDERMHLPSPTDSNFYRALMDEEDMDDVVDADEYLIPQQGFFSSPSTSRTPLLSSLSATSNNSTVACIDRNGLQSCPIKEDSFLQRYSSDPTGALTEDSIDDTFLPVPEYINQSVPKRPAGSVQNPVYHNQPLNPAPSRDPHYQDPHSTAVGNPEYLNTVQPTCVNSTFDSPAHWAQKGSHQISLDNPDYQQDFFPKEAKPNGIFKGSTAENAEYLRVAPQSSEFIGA
# Experimental: as §1, §2, §3, §4, §5
# [6] = target: T6, various mutants of kinase EGFR (BaF3 cell lines stably transfected with kinase) (Homo sapiens, UniProt P00533, L858R/T790M); details: BaF3 cells stably transfected with EGFR L858R/T790M, read-out: IC50, growth inhibition, L858R/T790M
# T6 construct: expressed in transfected cells; host or cells: BaF3
# T6 sequence (P00533 25-1210 T790M/L858R): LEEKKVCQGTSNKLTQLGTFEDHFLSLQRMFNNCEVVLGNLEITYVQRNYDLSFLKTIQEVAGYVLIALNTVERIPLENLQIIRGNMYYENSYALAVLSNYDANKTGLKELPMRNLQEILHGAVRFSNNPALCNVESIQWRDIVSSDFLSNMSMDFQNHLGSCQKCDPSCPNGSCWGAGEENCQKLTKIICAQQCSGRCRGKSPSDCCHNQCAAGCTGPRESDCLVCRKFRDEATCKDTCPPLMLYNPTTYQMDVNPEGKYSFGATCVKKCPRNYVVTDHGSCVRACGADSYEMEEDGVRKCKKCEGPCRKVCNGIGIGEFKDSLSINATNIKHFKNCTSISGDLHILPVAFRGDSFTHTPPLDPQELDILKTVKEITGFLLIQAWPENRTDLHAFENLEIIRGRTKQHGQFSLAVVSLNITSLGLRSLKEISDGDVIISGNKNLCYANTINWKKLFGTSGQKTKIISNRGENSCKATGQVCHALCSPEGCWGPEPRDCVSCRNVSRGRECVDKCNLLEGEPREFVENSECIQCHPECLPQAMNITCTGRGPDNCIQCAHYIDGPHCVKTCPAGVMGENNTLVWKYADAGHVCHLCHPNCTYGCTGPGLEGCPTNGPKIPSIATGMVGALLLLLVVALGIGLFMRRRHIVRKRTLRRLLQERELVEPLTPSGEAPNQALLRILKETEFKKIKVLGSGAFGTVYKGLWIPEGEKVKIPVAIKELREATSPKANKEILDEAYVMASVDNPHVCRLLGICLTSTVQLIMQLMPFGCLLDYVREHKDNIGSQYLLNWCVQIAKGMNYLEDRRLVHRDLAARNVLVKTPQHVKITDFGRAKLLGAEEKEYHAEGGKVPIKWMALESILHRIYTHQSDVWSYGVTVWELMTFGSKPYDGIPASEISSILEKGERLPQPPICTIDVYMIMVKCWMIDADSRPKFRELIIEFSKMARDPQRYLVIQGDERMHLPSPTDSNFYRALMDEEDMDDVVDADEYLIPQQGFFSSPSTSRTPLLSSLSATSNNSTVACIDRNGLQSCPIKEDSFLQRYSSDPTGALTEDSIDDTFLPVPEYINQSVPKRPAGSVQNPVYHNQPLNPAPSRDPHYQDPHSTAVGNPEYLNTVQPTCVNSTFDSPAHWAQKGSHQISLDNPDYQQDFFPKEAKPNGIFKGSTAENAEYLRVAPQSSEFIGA
# Experimental: as §1, §2, §3, §4, §5
Compound,IC50 [1],IC50 [2],IC50 [3],IC50 [4],IC50 [5],IC50 [6]
COc1cc(N2CCC(O)CC2)ccc1Nc1ncc(Br)c(Nc2ccc3nccnc3c2N(C)S(C)(=O)=O)n1 [Compound I-44],50 to 500 nM,≤ 50 nM,≤ 50 nM,≤ 50 nM,50 to 500 nM,≤ 50 nM
COc1cc(N2CCOCC2)ccc1Nc1ncc(Br)c(Nc2ccc3nccnc3c2N(C)S(C)(=O)=O)n1 [Compound I-45],50 to 500 nM,50 to 500 nM,≤ 50 nM,≤ 50 nM,50 to 500 nM,50 to 500 nM
COc1cc(C(=O)N2CCC(N3CCN(C)CC3)CC2)ccc1Nc1ncc(Br)c(Nc2ccc3nccnc3c2N(C)S(C)(=O)=O)n1 [Compound I-48],50 to 500 nM,50 to 500 nM,≤ 50 nM,≤ 50 nM,50 to 500 nM,50 to 500 nM
CN1CCN(S(=O)(=O)c2ccc(Nc3ncc(Br)c(Nc4ccc5nccnc5c4N(C)S(C)(=O)=O)n3)cc2)CC1 [Compound I-49],50 to 500 nM,50 to 500 nM,50 to 500 nM,50 to 500 nM,50 to 500 nM,50 to 500 nM
CN(c1c(Nc2nc(Nc3ccc(S(=O)(=O)NC4CC4)cc3)ncc2Br)ccc2nccnc12)S(C)(=O)=O [Compound I-50],50 to 500 nM,50 to 500 nM,50 to 500 nM,500 to 2500 nM,50 to 500 nM,≤ 50 nM
COc1nc(N2CCN(C)CC2)ccc1Nc1ncc(Br)c(Nc2ccc3nccnc3c2N(C)S(C)(=O)=O)n1 [Compound I-55],50 to 500 nM,50 to 500 nM,50 to 500 nM,50 to 500 nM,50 to 500 nM,50 to 500 nM
CN1CCN(c2ccc(Nc3ncc(Br)c(Nc4ccc5nccnc5c4N(C)S(C)(=O)=O)n3)cn2)CC1 [Compound I-56],≤ 50 nM,≤ 50 nM,≤ 50 nM,≤ 50 nM,≤ 50 nM,≤ 50 nM
Cc1ccc(Nc2ncc(Br)c(Nc3ccc4nccnc4c3N(C)S(C)(=O)=O)n2)cn1 [Compound I-63],50 to 500 nM,≤ 50 nM,50 to 500 nM,50 to 500 nM,≤ 50 nM,≤ 50 nM
CN(c1c(Nc2nc(Nc3ccn(C)n3)ncc2Br)ccc2nccnc12)S(C)(=O)=O [Compound I-66],50 to 500 nM,50 to 500 nM,50 to 500 nM,50 to 500 nM,50 to 500 nM,≤ 50 nM
CN(c1c(Nc2nc(Nc3cnn(C)c3)ncc2Br)ccc2nccnc12)S(C)(=O)=O [Compound I-67],50 to 500 nM,≤ 50 nM,≤ 50 nM,50 to 500 nM,≤ 50 nM,≤ 50 nM
CN(c1c(Nc2nc(NC3CC3)ncc2Br)ccc2nccnc12)S(C)(=O)=O [Compound I-73],500 to 2500 nM,50 to 500 nM,500 to 2500 nM,500 to 2500 nM,500 to 2500 nM,50 to 500 nM
CN(c1c(Nc2nc(Nc3cccc(N4CCC(O)CC4)c3)ncc2Br)ccc2nccnc12)S(C)(=O)=O [Compound I-76],500 to 2500 nM,50 to 500 nM,≤ 50 nM,50 to 500 nM,50 to 500 nM,≤ 50 nM
COc1ccc(N2CCC(O)CC2)cc1Nc1ncc(Br)c(Nc2ccc3nccnc3c2N(C)S(C)(=O)=O)n1 [Compound I-77],50 to 500 nM,≤ 50 nM,≤ 50 nM,≤ 50 nM,50 to 500 nM,≤ 50 nM

# Reference: patent US20230310428A1, “EGFR INHIBITOR AND PREPARATION METHOD AND USE THEREOF” (HONGYUN BIOTECH CO., LTD., priority 2020, published 2023)
